The text below walks through data of paper PMC8348562, “Potential Assessment of UGT2B17 Inhibition by Salicylic Acid in Human Supersomes In Vitro” (Molecules, 2021).

The target of one data set is T1, UGT2B17 (Homo sapiens, UniProt O75795).
T1 construct: recombinant human UGT2B17 supersomes (insect cells infected with baculovirus)
T1 sequence (O75795 24-530): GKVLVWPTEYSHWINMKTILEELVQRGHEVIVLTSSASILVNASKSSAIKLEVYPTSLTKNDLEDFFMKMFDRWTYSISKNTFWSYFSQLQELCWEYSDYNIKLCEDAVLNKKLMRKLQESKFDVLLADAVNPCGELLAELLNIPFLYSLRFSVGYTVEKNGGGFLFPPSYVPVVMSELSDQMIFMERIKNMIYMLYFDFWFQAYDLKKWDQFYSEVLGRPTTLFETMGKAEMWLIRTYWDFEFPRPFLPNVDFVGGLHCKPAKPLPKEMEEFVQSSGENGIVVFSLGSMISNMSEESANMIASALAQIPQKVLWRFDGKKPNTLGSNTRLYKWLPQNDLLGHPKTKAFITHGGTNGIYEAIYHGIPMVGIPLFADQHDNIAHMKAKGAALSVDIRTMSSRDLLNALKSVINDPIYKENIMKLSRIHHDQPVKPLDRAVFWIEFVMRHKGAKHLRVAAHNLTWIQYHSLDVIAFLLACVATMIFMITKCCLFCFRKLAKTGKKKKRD
Put plainly: HPLC testosterone glucuronidation assay in recombinant supersomes, Lineweaver-Burk analysis at […] salicylic acid. Type of data set: biochemical.

Substrate in the data set “purified protein”: C[C@]12CC[C@H]3[C@@H](CCC4=CC(=O)CC[C@@]43C)[C@@H]1CC[C@@H]2O
Put plainly: purified protein. The conditions noted are these: UDPGA; MgCl2.

On to `O=C(O)c1ccccc1O` [salicylic acid], for which the inhibition mode result at UGT2B17 is “UGT2B17 enzyme activity was inhibited uncompetitively by salicylic acid based on the in vitro inhibition study in human supersomes”.

B1: UGT2B17 (Homo sapiens) (protein)
chain: T1 sequence (O75795 24-530)
Turning to B1, the Km in the data set “purified protein” is 259.74 µM.

What is called Km is the substrate concentration at which the rate is half of its maximum.
